The test system of this series is splenocytes from TFA-S100 immunized BALB/c mice. Particulars: for activation of T cells (splenocyte proliferation, 3H thymidine incorporation / proliferation index): 0.1, 0.5 or 1 ug/mL epitope, splenocytes two weeks after TFA-S100 immunization; for recognition by DILI-specific T cells and B cells: summary of mouse splenocyte proliferation and human serum ELISA. As to the method:
FIG. 4. Splenocyte proliferation assays with candidate CYP2E1 epitopes.
As described above, BALB/c mice were immunized with TFA-S100. Splenocytes from BALB/c mice immunized with S100 in CFA plus PT or CFA and PT alone were used as controls. Splenocyte isolation was performed using basic immunological techniques. Briefly, spleens were harvested two weeks after immunization. Spleens were mashed between two frosted glass slides, and tissue debris was removed by filtering the sample through a 70 μm cell strainer. The remaining cells were washed with sterile phosphate buffered saline/2% fetal calf serum (PBS/2% FCS) and centrifuged at 1500 rpm for 10 minutes using a refrigerated desktop centrifuge. Red cells were lysed using ACK lysing buffer. The remaining cells were washed with RPMI-10% HEPES and filtered through a 70 μm cell strainer. The splenocytes were stored in RPMI complete media with 10% FCS (RPMI-10) at a final concentration of 2.5 million cells per 1 mL of media.
For the proliferation assays, 2.5×10^5 splenocytes (100 μl) were added to each well of a 96 well plate with 0.1 μg/mL, 0.5 μg/mL, or 1 μg/mL of a candidate epitope. As controls, media or concanavalin A (Con A) were also tested in the proliferation assays. Plates were incubated for 3 days at 37° C., 5% CO2, 95% air (humidified). Six to 18 hours prior to the 72 hour time point, the splenocytes were pulsed with 1 μCi/well ^3H thymidine (0.25 mCi/0.25 ml stock). Specifically, a 1:10 dilution (0.1 mCi/ml) of the ^3H thymidine stock solution is made by adding 200 μl of ^3H thymidine stock solution to 1800 μl of sterile RPMI. 10 μl (1 μCi) of diluted ^3H thymidine was pipetted into each well. The cells were incubated for […]. After incubation, cells were placed in −20° C. for up to 45 minutes to stop the incorporation of ^3H thymidine into proliferating cells. The splenocytes were analyzed and ^3H incorporation, an indicator of cellular proliferation, was measured.

Where two headings read alike, the source gives them in different places. Peptide text beside a SMILES is read from it.

For `CC(C)C[C@H](NC(=O)[C@H](CC(C)C)NC(=O)[C@H](CC(C)C)NC(=O)[C@H](Cc1ccccc1)NC(=O)[C@H](C)NC(=O)[C@H](C)NC(=O)[C@H](Cc1c[nH]c2ccccc12)NC(=O)[C@@H](NC(=O)[C@H](CC(C)C)NC(=O)[C@H](CC(C)C)NC(=O)[C@H](C)NC(=O)[C@@H](NC(=O)[C@@H](NC(=O)[C@@H](NC(=O)CNC(=O)[C@H](CC(C)C)NC(=O)[C@H](C)NC(=O)[C@@H](N)CO)C(C)C)[C@@H](C)O)C(C)C)C(C)C)C(=O)O` [JHDN1] (H-SALGVTVALLVWAAFLLL-OH), the “activation of T cells (splenocyte proliferation, 3H thymidine incorporation / proliferation index)” value is “able to activate T cells”.
Regarding `CC[C@H](C)[C@H](NC(=O)CN)C(=O)N[C@H](C(=O)N[C@@H](Cc1ccccc1)C(=O)N[C@@H](CC(N)=O)C(=O)N[C@@H](CC(N)=O)C(=O)NCC(=O)N1CCC[C@H]1C(=O)N[C@H](C(=O)N[C@@H](Cc1c[nH]c2ccccc12)C(=O)N[C@@H](CCCCN)C(=O)N[C@@H](CC(=O)O)C(=O)N[C@H](C(=O)N[C@@H](CCCNC(=N)N)C(=O)N[C@@H](CCCNC(=N)N)C(=O)N[C@@H](Cc1ccccc1)C(=O)N[C@@H](CO)C(=O)N[C@@H](CC(C)C)C(=O)N[C@H](C(=O)N[C@H](C(=O)N[C@@H](CC(C)C)C(=O)O)[C@@H](C)O)[C@@H](C)O)[C@@H](C)CC)[C@@H](C)O)[C@@H](C)CC` [JHDN5] (H-GIIFNNGPTWKDIRRFSLTTL-OH), the “activation of T cells (splenocyte proliferation, 3H thymidine incorporation / proliferation index)” value is reported as “able to activate T cells”; the “recognition by DILI-specific T cells and B cells” value was “only candidate epitope that is recognized by DILI-specific T cells”. In addition, the “recognition by DILI-specific T cells and B cells” value (listed as Gly^113-Leu^133) was “recognized by DILI-specific T cells and B cells”.

The values above are taken from US9339531B2, “Recognition of CYP2E1 epitopes” (The Johns Hopkins University, priority 2009, dated 2016).
